Test results taken from patent publication US9273077B2, “Phosphorus derivatives as kinase inhibitors” (ARIAD Pharmaceuticals, Inc., priority 2008, dated 2016).

Molecular target: T1, ALK (Homo sapiens, UniProt Q9UM73)
T1 construct: Kinases are expressed as either kinase domains or full length constructs fused to glutathione S-transferase (GST) or polyHistidine tagged fusion proteins; made in house; host or cells: E. coli or Baculovirus-High Five (not specified which for ALK)
Experiment: inhibitory potency against ALK (kinase inhibition assay)
Assay type: biochemical
Description: More specifically, the compounds described herein are screened for kinase inhibition activity as follows. Kinases suitable for use in the following protocol include, but are not limited to: ALK, Jak2, b-Raf, c-Met, Tie-2, FLT3, Abl, Lck, Lyn, Src, Fyn, Syk, Zap-70, Itk, Tec, Btk, EGFR, ErbB2, Kdr, FLT1, Tek, InsR, and AKT.
Kinases are expressed as either kinase domains or full length constructs fused to glutathione S-transferase (GST) or polyHistidine tagged fusion proteins in either E. coli or Baculovirus-High Five expression systems. They are purified to near homogeneity by affinity chromatography as previously described (Lehr et al., 1996; Gish et al., 1995). In some instances, kinases are co-expressed or mixed with purified or partially purified regulatory polypeptides prior to measurement of activity.
Kinase activity and inhibition can be measured by established protocols (see e.g., Braunwalder et al., 1996). In such cases, the transfer of ^33PO4 from ATP to the synthetic substrates poly(Glu, Tyr) 4:1 or poly(Arg, Ser) 3:1 attached to the bioactive surface of microtiter plates is taken as a measure of enzyme activity. After an incubation period, the amount of phosphate transferred is measured by first washing the plate with 0.5% phosphoric acid, adding liquid scintillant, and then counting in a liquid scintillation detector. The IC50 is determined by the concentration of compound that causes a 50% reduction in the amount of ^33P incorporated onto the substrate bound to the plate.
For example, in one method, compounds can be tested for their ability to inhibit kinase activity of baculovirus-expressed ALK using a modification of the ELISA protocol reported for trkA in Angeles, T. S. et al., Anal. Biochem. 1996, 236, 49-55, which is incorporated herein by reference. Phosphorylation of the substrate, phopholipase C-gamma (PLC- ? ) generated as a fusion protein with glutathione-S-transferase (GST) as reported in rotin, D. et al., EMBO J. 1992, 11, 559-567, which is incorporated by reference, can be detected with europium-labeled anti-phosphotyrosine antibody and measured by time-resolved fluorescence (TRF). […] Detection of the phosphorylated product can be performed by adding 100 ? L/well of Eu-N1 labeled PT66 antibody (Perkim Elmer #AD0041). Incubation at 37 degrees C. then proceeds for one hour, followed by addition of 100 ? L enhancement solution (for example Wallac #1244-105). The plate is gently agitated and after thirty minutes, the fluorescence of the resulting solution can be measured (for example using EnVision 2100 (or 2102) multilabel plate reader from Perkin Elmer).
Data analysis can then be performed. IC50 values can be calculated by plotting percent inhibition versus log10 of concentration of compound.
The inhibition of ALK tyrosine kinase activity can also be measured using the recombinant kinase domain of the ALK in analogy to VEDG-R kinase assay described in J. Wood et al., Cancer Res 2000, 60, 2178-2189. In vitro enzyme assays using GST-ALK protein tyrosine kinase can be performed in 96-well plate as a filter binding assay in 20 mMTris.HCl, pH 7.5, 3 mM MgCl2, 10 mM MnCl2, […], 0.1 ? Ci/assay (=30 ? L) [ ? -^33P]-ATP, 2 ? M ATP, 3 ? g/mL poly (Glu, tyr 4:1) Poly-EY (sigma P-0275), 1% DMSO, 25 ng ALK enzyme. Assays can be incubated for 10 min, at ambient temperature. Reactions can be terminated by adding 50 ? L of 125 mM EDTA, and the reaction mixture can be transferred onto a MAIP Multiscreen plate (Millipore, Bedford, Mass.) previously wet with methanol, and rehydrated for 5 minutes with water. Following washing (0.5% H3PO4), plates can be counted in a liquid scintillation counter. IC50 values are calculated by linear regression analysis of the percentage inhibition.

T1 sequence (Q9UM73 19-1620): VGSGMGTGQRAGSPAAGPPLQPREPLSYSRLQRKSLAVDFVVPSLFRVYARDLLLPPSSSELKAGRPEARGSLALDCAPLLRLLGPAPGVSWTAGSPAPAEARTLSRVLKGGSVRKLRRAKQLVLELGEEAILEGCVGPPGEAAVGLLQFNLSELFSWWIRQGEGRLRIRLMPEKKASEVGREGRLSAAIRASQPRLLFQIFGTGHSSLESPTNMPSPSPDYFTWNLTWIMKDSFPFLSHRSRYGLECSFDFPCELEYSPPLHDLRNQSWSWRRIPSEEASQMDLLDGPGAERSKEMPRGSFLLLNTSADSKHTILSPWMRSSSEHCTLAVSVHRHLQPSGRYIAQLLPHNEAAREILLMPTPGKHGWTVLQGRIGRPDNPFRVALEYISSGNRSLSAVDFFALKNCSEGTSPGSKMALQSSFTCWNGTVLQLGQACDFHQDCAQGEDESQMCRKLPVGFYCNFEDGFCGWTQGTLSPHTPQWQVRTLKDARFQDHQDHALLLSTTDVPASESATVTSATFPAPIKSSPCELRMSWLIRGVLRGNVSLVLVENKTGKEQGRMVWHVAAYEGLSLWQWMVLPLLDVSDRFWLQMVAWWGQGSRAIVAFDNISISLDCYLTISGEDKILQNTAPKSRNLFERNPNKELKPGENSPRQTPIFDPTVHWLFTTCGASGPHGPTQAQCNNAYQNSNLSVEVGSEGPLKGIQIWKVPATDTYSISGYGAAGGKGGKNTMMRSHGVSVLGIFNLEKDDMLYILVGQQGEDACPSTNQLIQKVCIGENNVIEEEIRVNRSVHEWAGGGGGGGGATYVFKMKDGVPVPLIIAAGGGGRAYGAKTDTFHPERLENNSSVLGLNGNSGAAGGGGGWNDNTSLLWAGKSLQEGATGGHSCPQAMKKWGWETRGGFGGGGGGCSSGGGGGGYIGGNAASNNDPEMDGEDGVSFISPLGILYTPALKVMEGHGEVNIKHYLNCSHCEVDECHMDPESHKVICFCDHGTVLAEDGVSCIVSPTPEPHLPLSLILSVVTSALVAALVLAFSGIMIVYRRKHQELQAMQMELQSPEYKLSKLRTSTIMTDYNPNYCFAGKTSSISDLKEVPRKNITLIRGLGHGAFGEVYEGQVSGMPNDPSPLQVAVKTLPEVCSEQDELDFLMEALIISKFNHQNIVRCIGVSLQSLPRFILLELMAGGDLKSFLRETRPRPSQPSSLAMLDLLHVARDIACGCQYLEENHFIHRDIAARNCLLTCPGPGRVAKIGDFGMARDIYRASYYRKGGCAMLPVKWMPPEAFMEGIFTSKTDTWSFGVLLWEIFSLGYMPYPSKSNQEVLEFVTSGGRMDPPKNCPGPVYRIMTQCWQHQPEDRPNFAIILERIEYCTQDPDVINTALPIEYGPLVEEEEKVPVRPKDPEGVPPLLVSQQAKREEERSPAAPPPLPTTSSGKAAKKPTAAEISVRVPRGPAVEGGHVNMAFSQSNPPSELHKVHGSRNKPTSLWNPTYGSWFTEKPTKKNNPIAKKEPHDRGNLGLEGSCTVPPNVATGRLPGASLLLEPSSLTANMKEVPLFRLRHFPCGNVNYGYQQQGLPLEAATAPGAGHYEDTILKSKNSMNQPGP

| SMILES | IC50 |
| --- | --- |
| CP(C)(=O)c1ccc(Nc2ncc(C(F)(F)F)c(NN3CCOCC3)n2)cc1 [Example 8, N^2-[4-(dimethylphosphoryl)phenyl]-N^4-(morpholin-4-yl)-5-(trifluoromethyl)pyrimidine-2,4-diamine] | > 10 nM |
| Cc1cc(C)cc(Nc2nc(Nc3ccc(P(C)(C)=O)cc3)ncc2C(F)(F)F)c1 [Example 14, N^4-(3,5-dimethylphenyl)-N^2-[4-(dimethylphosphoryl)phenyl]-5(trifluoromethyl)pyrimidine-2,4-diamine] | > 10 nM |
| COc1nc(P(C)(C)=O)cnc1Nc1ncc(Cl)c(Nc2ccccc2S(=O)(=O)C(C)C)n1 [Example 33, 5-chloro-N^2-[5-(dimethylphosphoryl)-3-methoxypyrazin-2-yl]-N^4-[2-(propan-2-ylsulfonyl)phenyl]pyrimidine-2,4-diamine] | > 10 nM |
| CP(C)(=O)c1ccc(Nc2ncc(C(F)(F)F)c(NN3CC4CCCC4C3)n2)cc1 (stereo not shown) [Example 7, N^2-[4-(dimethylphosphoryl)phenyl]-N^4-(hexahydrocyclopenta[c]pyrrol-2(1H)-yl)-5-(trifluoromethyl)pyrimidine-2,4-diamine] | > 10 nM |
| CP(C)(=O)c1ccc(Nc2ncc(C(F)(F)F)c(NCC34CC5CC(CC(C5)C3)C4)n2)cc1 [Example 12, N^2-[4-(dimethylphosphoryl)phenyl]-N′-(tricyclo[3.3.1.1^3,7]dec-1-ylmethyl)-5-(trifluoromethyl)pyrimidine-2,4-diamine] | > 10 nM |
| CN1CCN(c2ccc(CNc3nc(Nc4ccc(P(C)(C)=O)cc4)ncc3C(F)(F)F)cc2)CC1 [Example 13, N^2-[4-(dimethylphosphoryl)phenyl]-N^4-[4-(4-methylpiperazin-1-yl)benzyl]-5-(trifluoromethyl)pyrimidine-2,4-diamine] | > 10 nM |
| CP(C)(=O)c1ccc(Nc2ncc(C(F)(F)F)c(NCCc3ccc(S(N)(=O)=O)cc3)n2)cc1 [Example 5, 4-(2-{[2-{[4-(dimethylphosphoryl)phenyl]amino}-5-(trifluoromethyl)pyrimidin-4-yl]amino}ethyl)benzenesulfonamide] | > 10 nM |
| CN1CCN(Nc2nc(Nc3ccc(P(C)(C)=O)cc3)ncc2C(F)(F)F)CC1 [Example 11, N^2-[4(dimethylphosphoryl)phenyl]-N^4-(4-methylpiperazin-1-yl)-5-(trifluoromethyl) pyrimidine-2,4-diamine] | > 10 nM |
| COc1cc(P(C)(C)=O)ccc1Nc1ncc(Cl)c(Nc2ccccc2)n1 [Example 15, 5-chloro-N^2-[4-(dimethylphosphoryl)-2-methoxyphenyl]-N^4-phenylpyrimidine-2,4-diamine] | > 10 nM |
| CP(C)(=O)c1ccc(Nc2ncc(C(F)(F)F)c(NC34CC5CC(CC(C5)C3)C4)n2)cc1 [Example 2, N^2-[4-(dimethylphosphoryl)phenyl]-N′-(tricyclo[3.3.1.1^3,7]dec-1-yl)-5-(trifluoromethyl)pyrimidine-2,4-diamine] | > 10 nM |
| COc1cc(N2CCC(N3CCN(C)CC3)CC2)ccc1Nc1ncc(Cl)c(Nc2ccc(P(C)(C)=O)cc2)n1 [Example 19, 5-chloro-N^4-[4-(dimethylphosphoryl)phenyl]-N^2-{2-methoxy-4-[4-(4-methylpiperazin-1-yl)piperidin-1-yl]phenyl}pyrimidine-2,4-diamine] | > 10 nM |
| CP(C)(=O)c1ccc(Nc2ncc(C(F)(F)F)c(NCCc3c[nH]c4ccccc34)n2)cc1 [Example 10, N^2-[4-(dimethylphosphoryl)phenyl]-N^4-[2-(1H-indol-3-yl)ethyl]-5-(trifluoromethyl)pyrimidine-2,4-diamine] | > 10 nM |

More lines, now with the values ahead:

| IC50 | SMILES |
| --- | --- |
| < 2 nM | CC(C)S(=O)(=O)c1ccccc1Nc1nc(Nc2ccc(P(C)(C)=O)cc2Cl)ncc1Cl [Example 26, 5-Chloro-N^2-[2-chloro-4-(dimethylphosphoryl)phenyl]-N^4-[2-(propan-2-ylsulfonyl)phenyl]pyrimidine-2,4-diamine] |
| 2 to 10 nM | COc1cc(P(C)(C)=O)ccc1Nc1ncc(C(F)(F)F)c(Nc2ccccc2S(=O)(=O)C(C)C)n1 [Example 16, N^2-[4-(dimethylphosphoryl)-2-methoxyphenyl]-N^4-[2-(propan-2-ylsulfonyl)phenyl]-5-(trifluoromethyl)pyrimidine-2,4-diamine] |
| > 10 nM | COc1cc(P(C)(C)=O)ccc1Nc1ncc(N)c(Nc2ccccc2S(=O)(=O)C(C)C)n1 [Example 28, N^2-[4-(dimethylphosphoryl)-2-methoxyphenyl]-N^4-[2-(propan-2-ylsulfonyl)phenyl]pyrimidine-2,4,5-triamine] |
| 2 to 10 nM | COc1cc(P2(=O)CCNCC2)ccc1Nc1nccc(Nc2ccccc2S(=O)(=O)C(C)C)n1 [Example 30, N^2-[2-methoxy-4-(4-oxido-1,4-azaphosphinan-4-yl)phenyl]-N^4-[2-(propan-2-ylsulfonyl)phenyl]pyrimidine-2,4-diamine] |
| 2 to 10 nM | CC(C)S(=O)(=O)c1ccccc1Nc1nc(Nc2ccc(P(C)(C)=O)cc2F)ncc1Cl [Example 27, 5-Chloro-N^2-[4-(dimethylphosphoryl)-2-fluorophenyl]-N^4-[2-(propan-2-ylsulfonyl)phenyl]pyrimidine-2,4-diamine] |
| < 2 nM | CCc1cc(P(C)(C)=O)ccc1Nc1ncc(Cl)c(Nc2ccccc2S(=O)(=O)C(C)C)n1 [Example 24, 5-Chloro-N^2-[4-(dimethylphosphoryl)-2-ethylphenyl]-N^4-[2-(propan-2-ylsulfonyl)phenyl]pyrimidine-2,4-diamine] |
| > 10 nM | COc1cc(P(C)(C)=O)ccc1Nc1nccc(Nc2ccccc2S(=O)(=O)C(C)C)n1 [Example 20, N^2-[4-(dimethylphosphoryl)-2-methoxyphenyl]-N^4-[2-(propan-2-ylsulfonyl)phenyl]pyrimidine-2,4-diamine] |
| < 2 nM | COc1nc(P(C)(C)=O)ccc1Nc1ncc(Cl)c(Nc2ccccc2S(=O)(=O)C(C)C)n1 [Example 32, 5-chloro-N^2-[6-(dimethylphosphoryl)-2-methoxypyridin-3-yl]-N^4-[2-(propan-2-ylsulfonyl)phenyl]pyrimidine-2,4-diamine] |
| 2 to 10 nM | COc1cc(P(C)(C)=O)ccc1Nc1ncc(C)c(Nc2ccccc2S(=O)(=O)C(C)C)n1 [Example 21, N^2-[4-(Dimethylphosphoryl)-2-methoxyphenyl]-5-methyl-N^4-[2-(propan-2-ylsulfonyl)phenyl]pyrimidine-2,4-diamine] |
| 2 to 10 nM | COc1ccc(P(C)(C)=O)cc1Nc1ncc(Cl)c(Nc2ccccc2S(=O)(=O)C(C)C)n1 [Example 22, 5-Chloro-N^2-[5-(dimethylphosphoryl)-2-methoxyphenyl]-N^4-[2-(propan-2-ylsulfonyl)phenyl]pyrimidine-2,4-diamine] |
| < 2 nM | CC(C)S(=O)(=O)c1ccccc1Nc1nc(Nc2ccc(P(C)(C)=O)cc2OC(F)(F)F)ncc1Cl [Example 25, 5-Chloro-N^2-[4-(dimethylphosphoryl)-2-(trifluoromethoxy)phenyl]-N^4-[2-(propan-2-ylsulfonyl)phenyl]pyrimidine-2,4-diamine] |
| < 2 nM | Cc1cc(P(C)(C)=O)ccc1Nc1ncc(Cl)c(Nc2ccccc2S(=O)(=O)C(C)C)n1 [Example 23, 5-Chloro-N^2-[4-(dimethylphosphoryl)-2-methylphenyl]-N-[2-(propan-2-ylsulfonyl)phenyl]pyrimidine-2,4-diamine] |
| > 10 nM | COc1cc(P(C)(C)=O)ccc1Nc1ncc2[nH]c(=O)n(-c3ccccc3S(=O)(=O)C(C)C)c2n1 [Example 29, 2-{[4-(dimethylphosphoryl)-2-methoxyphenyl]amino}-9-[2-(propan-2-ylsulfonyl)phenyl]-7,9-dihydro-8H-purin-8-one] |
